We go through 3 compounds from publication PMC7589992 (Pharmaceutics, 2020).

Like-named read-outs stand apart in the source and are kept apart here.

Data set [1] can be described thus: Visual inspection of samples at the concentrations applied in vivo. It counts as physicochemical. The following applies: PTH(1-34) mixed with penetratin.
In data set [2] the test system is Caco-2 cell monolayers. In words: In vitro transepithelial permeation across Caco-2 cell monolayers. It counts as in vitro ADME, human. The following applies: Caco-2, apical to basolateral, 3 h, 37 °C, ELISA/EIA, N = 3, n = 3; for effect on permeation of lowering the sample pH from 6.5 or 7.4 to pH 5, without penetratin (in words): 5 µM peptide alone. As for the experimental part:
At 80% confluency the cells were sub-cultured by detaching them from the culture flasks by trypsin-EDTA treatment. […] Caco-2 cell monolayers were washed twice apical and basolateral with 37 °C hHBSS. The cells were equilibrated to room temperature in the last washing volume before TEER was measured using an EVOM equipped with an Endohm-12 cup (World Precision Instruments, Sarasota, FL, USA) and equilibration to 37 °C. […] The permeation study was initiated by careful transfer of the filter inserts to fresh 12-well plates containing 1 mL 37 °C hHBSS. The experiment was performed on a 37 °C shaking table (50 rpm). 100 µL test samples were withdrawn from the basolateral compartment at time-points 0, 60, 120 and 180 min and stored at −20 °C. The sample volume was immediately replaced with 37 °C hHBSS.

The nature of data set [3]: ThT binding to supramolecular complexes, plate reader fluorescence. To be noted: all pH-values tested (5, 6.5, 7.4); 50 µM insulin or PTH(1-34) or 200 µM penetratin alone, 100 µM ThT; N = 3. The data set is classed as physicochemical.
Data set [4] is described as follows: In situ rat intestinal injection: plasma insulin or PTH(1-34). The data set is classed as in vivo. To be noted: intraintestinal. The protocol:
100 μL test samples were withdrawn from the basolateral compartment at time-points 0, 60, 120 and 180 min and stored at -20 °C. The sample volume was immediately replaced with 37 °C hHBSS. […] Male Sprague Dawley rats (Taconic, Ejby, Denmark) weighing ~250 g were allowed to acclimatize for at least 8 days at 20-22 °C and 45-65% humidity with free access to water and food. The rats were fasted for 18 h prior to surgery. Hypnorm (fentanyl 0.315 mg/mL and fluanisone 10 mg/mL) (Glostrup apotek, Glostrup, Denmark) and Dormicum (midazolam 5 mg/mL) (Nomeco, Copenhagen, Denmark) were mixed 1:1 (v/v) with ultrapure water and used for anesthesia. The initial dose was 2 mL/kg and subsequent doses of 1 mL/kg were given every 20 min within the first hour and thereafter every 40 min to keep the animals anaesthetized. All doses of anesthetics were administered subcutaneously in the neck region. The abdominal wall was cut open and the small intestine localized. A 10 cm PE-50 catheter (Smiths Medical, Keene, NH, USA) was inserted into the middle of the intestine and secured with a 3/0 suture (Braun, Tuttlingen, Germany). Care was taken not to interrupt the mesenteric blood flow. The intestine was hydrated with 1-2 mL isotonic sodium chloride solution before the rat abdominal wall was closed with 9 mm clips using the AutoClip Wound Closure System (Alzet, Cupertino, CA, USA). […] The blood samples were placed on ice prior isolation of the plasma by centrifugation at 2000× g at 4 °C for 10 min (Eppendorf centrifuge 5424, Eppendorf, Hamburg, Germany). Blood glucose was measured at time points of 15, 30, 45, 60, 90, and 120 min after dosing using an On-Call blood glucose meter (Acon, San Diego, CA, USA). After the final blood sampling, the animals were euthanized while still under anesthesia using 90% CO2 in O2 [19]. The abdominal wall of the rats was reopened after the experiment to ensure the catheter was still in place. Likewise, control of potential damage to the intestine was determined macroscopically. The experiments were conducted in strict compliance with the national animal research license 2009/561-1622.

In data set [5] the test system is Caco-2 cell monolayers. In words: In vitro stability during apical incubation on Caco-2 cell monolayers. It counts as in vitro ADME, human. To be noted: 37 °C, RP-HPLC; for peptide remaining after 4 h in physical mixture with penetratin, % of initially applied: 5 µM peptide + 20 µM penetratin, N = 3, mean ± SD. The protocol:
(§1) At 80% confluency the cells were sub-cultured by detaching them from the culture flasks by trypsin-EDTA treatment. […] [17]. Briefly, The Caco-2 cell monolayers were washed twice apical and basolateral with 37 °C hHBSS and equilibrated to room temperature in the last washing volume. The transepithelial electrical resistance (TEER) was measured using an EVOM equipped with an Endohm-12 cup (World Precision Instruments, Sarasota, FL, USA) to validate the barrier integrity of the monolayer. Following equilibration to 37 °C the filter inserts were transferred to empty 6-well plates in order to block permeation across the monolayer. […] The kinetics of the metabolic degradation was evaluated by analytical RP-HPLC as described under the ultracentrifugation procedure.

Experiment in data set [6]: as above
The data set is classed as in vitro ADME, human. To be noted: human, peptide alone, 5 µM, 37 °C, RP-HPLC, N = 3, mean ± SD, read-out: intact peptide remaining after 4 h, % of initial concentration. As for the experimental part: as §1

The conditions of data set [7]: no reference given; cited from earlier work.
The subject of data set [8] is Male Sprague Dawley rats. In words: In situ rat intestinal injection: blood glucose. It counts as in vivo. The following applies: intraintestinal. As for the experimental part:
Male Sprague Dawley rats (Taconic, Ejby, Denmark) weighing ~250 g were allowed to acclimatize for at least 8 days at 20–22 °C and 45–65% humidity with free access to water and food. The rats were fasted for 18 h prior to surgery. Hypnorm (fentanyl 0.315 mg/mL and fluanisone 10 mg/mL) (Glostrup apotek, Glostrup, Denmark) and Dormicum (midazolam 5 mg/mL) (Nomeco, Copenhagen, Denmark) were mixed 1:1 (v/v) with ultrapure water and used for anesthesia. The initial dose was 2 mL/kg and subsequent doses of 1 mL/kg were given every 20 min within the first hour and thereafter every 40 min to keep the animals anaesthetized. All doses of anesthetics were administered subcutaneously in the neck region. The abdominal wall was cut open and the small intestine localized. A 10 cm PE-50 catheter (Smiths Medical, Keene, NH, USA) was inserted into the middle of the intestine and secured with a 3/0 suture (Braun, Tuttlingen, Germany). Care was taken not to interrupt the mesenteric blood flow. The intestine was hydrated with 1–2 mL isotonic sodium chloride solution before the rat abdominal wall was closed with 9 mm clips using the AutoClip Wound Closure System (Alzet, Cupertino, CA, USA). The animal was left on a 37 °C heating plate (Scandidact, Kvistgaard, Denmark) for 30 min prior dosing of the test samples to allow normalization of the potentially elevated blood glucose level resulting from stress induced by handling and surgery. […] A volume of 200 µL air was injected immediately after dosing to fully empty the catheter into the intestinal lumen. 200 µL blood samples were collected from the tail vein at time points 0, 5, 15, 30, 45, 60, 90, and 120 min into EDTA-coated microcuvette vials (Sarstedt, Nümbrecht, Germany). The blood samples were placed on ice prior isolation of the plasma by centrifugation at 2000× g at 4 °C for 10 min (Eppendorf centrifuge 5424, Eppendorf, Hamburg, Germany). Blood glucose was measured at time points of 15, 30, 45, 60, 90, and 120 min after dosing using an On-Call blood glucose meter (Acon, San Diego, CA, USA). After the final blood sampling, the animals were euthanized while still under anesthesia using 90% CO2 in O2 [19]. The abdominal wall of the rats was reopened after the experiment to ensure the catheter was still in place. Likewise, control of potential damage to the intestine was determined macroscopically. The experiments were conducted in strict compliance with the national animal research license 2009/561-1622.

The nature of data set [9]: Size distribution by dynamic light scattering. The following applies: DLS, mHBSS pH 5, 25 °C, 180 µM insulin or PTH(1-34), alone or mixed with 720 µM penetratin, N = 3, mean ± SD. It counts as physicochemical. The protocol:
Size distributions according to the distribution by volume were determined using a Zetasizer Nano ZSP (Malvern Instruments, Worcestershire, UK) equipped with a 633 nm laser at 25 °C with 10–20 runs of 10 s and N = 3.

The mark [10] stands for this setting: apical pH 5, 5 µM peptide + 20 µM penetratin.
[11] abbreviates: apical pH 6.5 and 7.4, 5 µM peptide + 20 µM penetratin.
Where [12] appears, read: pH 5, apical incubation on Caco-2 monolayers.
[13] abbreviates: pH 6.5, apical incubation on Caco-2 monolayers.
Where [14] appears, read: pH 7.4, apical incubation on Caco-2 monolayers.
The mark [15] stands for this setting: insulin (50 IU/kg) alone or 720 µM penetratin alone, pH 5, N = 6, mean ± SD.

With `CC[C@H](C)[C@H](NC(=O)[C@H](CCC(=O)O)NC(=O)[C@H](CO)NC(=O)[C@@H](NC(=O)[C@@H](N)CO)C(C)C)C(=O)N[C@@H](CCC(N)=O)C(=O)N[C@@H](CC(C)C)C(=O)N[C@@H](CCSC)C(=O)N[C@@H](Cc1cnc[nH]1)C(=O)N[C@@H](CC(N)=O)C(=O)N[C@@H](CC(C)C)C(=O)NCC(=O)N[C@@H](CCCCN)C(=O)N[C@@H](Cc1cnc[nH]1)C(=O)N[C@@H](CC(C)C)C(=O)N[C@@H](CC(N)=O)C(=O)N[C@@H](CO)C(=O)N[C@@H](CCSC)C(=O)N[C@@H](CCC(=O)O)C(=O)N[C@@H](CCCN=C(N)N)C(=O)N[C@H](C(=O)N[C@@H](CCC(=O)O)C(=O)N[C@@H](Cc1c[nH]c2ccccc12)C(=O)N[C@@H](CC(C)C)C(=O)N[C@@H](CCCN=C(N)N)C(=O)N[C@@H](CCCCN)C(=O)N[C@@H](CCCCN)C(=O)N[C@@H](CC(C)C)C(=O)N[C@@H](CCC(N)=O)C(=O)N[C@@H](CC(=O)O)C(=O)N[C@H](C(=O)N[C@@H](Cc1cnc[nH]1)C(=O)N[C@@H](CC(N)=O)C(=O)N[C@@H](Cc1ccccc1)C(=O)O)C(C)C)C(C)C` [PTH(1-34)], the “visible precipitation on mixing with penetratin (in words)” value in data set [1] is reported as “not evident”. In addition, in data set [2], the “effect on permeation of lowering the sample pH from 6.5 or 7.4 to pH 5, without penetratin (in words)” value was “did not increase”. The “penetratin-mediated transepithelial permeation / Papp (in words)” value in data set [2] (setting [10]) is “increase”; in data set [2] (setting [11]), “no significant increase”. The “ThT fluorescence above background, peptide alone (in words)” value (from here on “ThT fluorescence above background”) in data set [3] is reported as “no pronounced increase”. In addition, in data set [4] (PTH(1-34) 1.2 mg/kg + penetratin 1:4, N = 6), the “pH-dependent trend of penetratin-mediated delivery, Cmax of plasma PTH(1-34) and AUC” value was “pH 5 > pH 6.5 > pH 7.4”. For the same compound, the entries for the “peptide remaining after 4 h in physical mixture with penetratin, % of initially applied” value in data set [5] (setting [12]), in [5] (setting [13]) and in [5] (setting [14]) were 72.4 ± 3.0%, 67.0 ± 2.6% and 69.9 ± 2.7%, respectively. Also, the figures for the remaining at 4 h, 5 µM in [6] (setting [12]), in data set [6] (setting [13]) and in data set [6] (setting [14]) were 66.6 ± 8.5%, 71.7 ± 7.1% and 73.6 ± 9.1%, respectively. Moreover, in [7], the pI is 8.3.
In the case of RQIKIWFQNRRMKWKK [penetratin], in data set [3], the “ThT fluorescence above background” value is given as “no pronounced increase”. For the same compound, in data set [7], the pI is 12.3. In addition, the “blood glucose level, % of initial value” in data set [8] (setting [15]) is listed as “did not affect”.
In the case of “insulin: Human recombinant insulin (5807.6 g/mol, Zn-free) provided by Sanofi”, the “effect on permeation of lowering the sample pH from 6.5 or 7.4 to pH 5, without penetratin (in words)” value in [2] is “did not increase”. In addition, the “penetratin-mediated transepithelial permeation / Papp (in words)” value is “increase” in data set [2] (setting [10]) and “no significant increase” in [2] (setting [11]). In addition, the “ThT fluorescence above background” value in data set [3] is on record as “increase”. In addition, the “plasma insulin concentration and AUC on co-administration with penetratin (in words)” value in data set [4] (insulin 50 IU/kg + penetratin 1:4, pH 5, compared to pH 6.5 and 7.4, N = 6) was “greatest effect”; in data set [4] (insulin 50 IU/kg + penetratin 1:4, pH 6.5, N = 6), “slight increase”; in data set [4] (insulin 50 IU/kg + penetratin 1:4, pH 7.4, N = 6), “did not differ from administration of insulin alone”. For the same compound, the “stability during incubation for 4 h (in words)” value in data set [5] (5 µM insulin alone, pH 5, 6.5, or 7.4, apical incubation on Caco-2 monolayers, N = 3) is “remained stable”. The “peptide remaining after 4 h in physical mixture with penetratin, % of initially applied” value in data set [5] (setting [12]) is reported as 89.9 ± 11.2%; in data set [5] (setting [14]), “remained stable”. Moreover, the “blood glucose level, % of initial value” in [8] (insulin 50 IU/kg in physical mixture with 720 µM penetratin (1:4), pH 5, 60 min time-point, N = 6, mean ± SD) turned out to be 38.5 ± 23.8%; in data set [8] (insulin 50 IU/kg in physical mixture with 720 µM penetratin (1:4), pH 6.5, after 60 min, N = 6, mean ± SD), 71.1 ± 17.8%; in data set [8] (insulin 50 IU/kg in physical mixture with 720 µM penetratin (1:4), pH 7.4, after 60 min, N = 6, mean ± SD) it was 83.3 ± 21.2%; in [8] (setting [15]) it was 86.9 ± 6.0%; in data set [8] (insulin (50 IU/kg) alone, pH 6.5, N = 6, mean ± SD), 88.9 ± 11.1%. Moreover, in data set [8] (insulin (50 IU/kg) alone, pH 7.4, N = 6), the “blood glucose level (in words)” value was “did not affect”. The same compound came in with a volume mean size in [9] of 1579 ± 319 nm.
